Consider 23 molecules from patent US8609652B2, “Method of administering a methylene blue-curcumin analog for the treatment of alzheimer's disease” (DePuy Synthes Products, LLC, priority 2009, dated 2013).

For orientation: AUC means concentration integrated over time. Usually IC50 stands for the midpoint of a concentration-inhibition curve.

For data set [1] the following is noted: cited from earlier work; for Parent Solubility: parent phenol.
The conditions of data set [2]: cited from earlier work; for peak cerebrospinal fluid (CSF) concentration of estradiol: in vivo, 1 mg/kg.
For data set [3] the following is noted: in vivo, 1 mg/kg. An excerpt:
In some embodiments, the water-soluble ester prodrug is created by reacting the phenolic parent compound with dimethylglycine. The literature reports rendering lipophilic phenolic compounds water soluble by reacting the phenolic parent compound with dimethylglycine. […]. Al-Ghananeem concluded that the prodrug provides for targeted intranasal delivery of 17B-estradiol to the brain.

For data set [4] the following is noted: cited from earlier work.
For data set [5] the following is noted: cited from earlier work. This is another data set of the same source.
The conditions of data set [6]: cited from earlier work. The source holds these as a separate data set.
Data set [7] in a line: carbamazepine peak brain tissue concentration by route (Barakat).
The conditions of data set [8]: cited from earlier work. This is another data set of the same source.
Data set [9] concerns enzymatic glucuronidation activity. To be noted: concentrations in excess of about 10 mM; cited from earlier work.
Another data set relates to PC12 cells, βA (25-35). The note with it: cited from earlier work; for anti-βA (25-35) ED50: Park, concentration required to achieve 50% cell viability.
Another data set deals with PC12 cells, βA (1-42). The note with it: cited from earlier work; for anti-βA (1-42) ED50: Park.
The next data set deals with PC12 cells. Put plainly: relative potency versus curcumin in in vitro protection of PC12 cells against beta amyloid insult. In kind it is cell-based. An excerpt: Each of the parent compounds may be obtained by the methods disclosed in Park.
It is further observed that both of these qualities can be placed into the same molecule (35).

The conditions of data set [10]: cited from earlier work; for serum Cmax: volunteers.
Data set [11] can be described thus: predicted curcumin levels from transdermal iontophoresis of charged curcumin prodrugs. In kind it is in vivo, human.
The conditions of data set [12]: oral dosing, cited from earlier work.
A short description of data set [13]: brain tissue concentration after curcumin injection (Wang). The note with it: injection of 30 mg/kg.
In a further data set the target is MRP2 (Homo sapiens, UniProt Q92887). To be noted: read-out: IC50, MRP-2-mediated transport; Wortelboer; cited from earlier work.
MRP2, sequence (Q92887 whole entry): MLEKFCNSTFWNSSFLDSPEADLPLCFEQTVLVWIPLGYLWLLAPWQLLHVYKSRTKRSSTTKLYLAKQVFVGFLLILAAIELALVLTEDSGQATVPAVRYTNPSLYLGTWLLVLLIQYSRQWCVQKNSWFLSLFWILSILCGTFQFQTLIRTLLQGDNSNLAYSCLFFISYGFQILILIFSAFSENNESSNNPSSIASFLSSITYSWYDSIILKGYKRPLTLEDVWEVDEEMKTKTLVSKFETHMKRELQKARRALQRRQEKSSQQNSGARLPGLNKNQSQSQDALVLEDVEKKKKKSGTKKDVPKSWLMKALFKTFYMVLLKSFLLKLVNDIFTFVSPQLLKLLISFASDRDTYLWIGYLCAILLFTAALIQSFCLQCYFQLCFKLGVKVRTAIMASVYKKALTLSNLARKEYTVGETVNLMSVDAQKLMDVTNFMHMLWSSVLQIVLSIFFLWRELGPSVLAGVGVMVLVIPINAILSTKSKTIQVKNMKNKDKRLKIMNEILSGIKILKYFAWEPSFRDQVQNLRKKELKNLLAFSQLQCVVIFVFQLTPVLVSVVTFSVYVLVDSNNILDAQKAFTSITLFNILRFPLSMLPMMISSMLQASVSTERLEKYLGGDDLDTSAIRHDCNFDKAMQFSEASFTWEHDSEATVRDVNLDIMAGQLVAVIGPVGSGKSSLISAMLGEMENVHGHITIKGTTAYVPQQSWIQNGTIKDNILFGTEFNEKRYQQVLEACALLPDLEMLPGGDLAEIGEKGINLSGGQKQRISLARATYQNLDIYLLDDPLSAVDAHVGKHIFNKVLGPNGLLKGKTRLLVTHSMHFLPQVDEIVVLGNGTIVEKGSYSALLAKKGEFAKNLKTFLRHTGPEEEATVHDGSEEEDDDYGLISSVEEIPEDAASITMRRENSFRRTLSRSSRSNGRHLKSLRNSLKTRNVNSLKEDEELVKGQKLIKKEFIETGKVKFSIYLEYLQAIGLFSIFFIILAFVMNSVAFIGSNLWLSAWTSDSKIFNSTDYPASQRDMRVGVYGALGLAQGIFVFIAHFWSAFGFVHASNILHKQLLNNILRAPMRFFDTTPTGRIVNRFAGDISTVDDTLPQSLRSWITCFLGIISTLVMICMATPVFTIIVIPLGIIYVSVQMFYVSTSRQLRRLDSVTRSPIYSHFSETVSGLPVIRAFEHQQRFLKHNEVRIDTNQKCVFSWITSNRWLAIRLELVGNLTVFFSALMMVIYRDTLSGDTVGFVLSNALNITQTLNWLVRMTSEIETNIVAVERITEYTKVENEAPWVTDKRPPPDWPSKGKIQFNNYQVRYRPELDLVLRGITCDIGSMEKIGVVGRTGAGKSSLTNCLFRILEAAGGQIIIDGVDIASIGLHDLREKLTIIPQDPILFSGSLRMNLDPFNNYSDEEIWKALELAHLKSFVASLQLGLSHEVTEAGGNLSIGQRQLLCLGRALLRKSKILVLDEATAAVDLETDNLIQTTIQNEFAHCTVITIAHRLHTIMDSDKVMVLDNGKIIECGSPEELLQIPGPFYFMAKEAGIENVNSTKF
The test system of the next data set is amyloid plaques. To be noted: injected peripherally, aged Tg mice; cited from earlier work.
Another data set concerns the target T1, UGT1A1 (Homo sapiens, UniProt P22309).
T1 sequence (P22309 26-533): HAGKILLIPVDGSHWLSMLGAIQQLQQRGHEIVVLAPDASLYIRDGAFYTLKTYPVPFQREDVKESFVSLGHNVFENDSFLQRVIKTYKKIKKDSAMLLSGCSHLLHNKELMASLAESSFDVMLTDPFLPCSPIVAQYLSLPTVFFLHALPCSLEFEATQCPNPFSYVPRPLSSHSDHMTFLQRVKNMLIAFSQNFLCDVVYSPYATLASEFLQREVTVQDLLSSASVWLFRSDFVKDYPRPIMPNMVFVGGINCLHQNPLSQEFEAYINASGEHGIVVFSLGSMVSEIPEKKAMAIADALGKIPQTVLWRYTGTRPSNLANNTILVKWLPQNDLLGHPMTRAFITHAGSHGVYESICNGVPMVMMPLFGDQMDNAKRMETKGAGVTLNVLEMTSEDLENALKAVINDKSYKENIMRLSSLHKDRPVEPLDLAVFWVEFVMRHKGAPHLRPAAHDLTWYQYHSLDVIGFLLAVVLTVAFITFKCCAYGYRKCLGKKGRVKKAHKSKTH
To be noted: about one hour after exposure; cited from earlier work.

A further data set deals with UGT enzymes. To be noted: cited from earlier work.
Where [14] appears, read: reservoir concentration about 25-50 mg/ml.

Entries after “also recorded” stand apart in the source; their conditions may differ. Where a name gives a salt, the structure may show the parent alone. Read-outs that look alike come from different tables or passages of the source.

Regarding `CCN(CC)CCC(=O)Oc1ccc2c(c1)CC[C@@H]1[C@@H]2CC[C@]2(C)[C@@H](O)CC[C@@H]12.Cl` [3-DEAPE2HCl, 3-N,N-diethylamino propionyl ester hydrochloride], the “water solubility of estradiol ester prodrug” value in data set [1] (dimethylglycine ester where the label is estradiol) is recorded as “about 20 mg/ml”.

On to `CN(C)CCCC(=O)Oc1ccc2c(c1)CC[C@@H]1[C@@H]2CC[C@]2(C)[C@@H](O)CC[C@@H]12.Cl` [3-DMABE2-HCl, 3-N,N dimethylamino butyl ester HCl], for which, in data set [2], the “peak cerebrospinal fluid (CSF) concentration of estradiol” value is listed as “about 66 ng/ml”. In data set [3], the “peak CSF concentration (molar)” value was roughly 0.15 µM.

As to `CCCN(CCC)C1CCc2c(O)cccc2C1` (stereo not shown) [5-OH-DPAT], the Flux is 78.4 nmol/cm/h in data set [4] (0.5 mg/ml), 187.6 nmol/cm/h in data set [4] (1.3 mg/ml), 318.2 nmol/cm/h in data set [4] (2.3 mg/ml) and 90 μg/(cm^2 · h) in data set [4].

Regarding `CN(C)CCCC(=O)O[C@H]1CC[C@H]2[C@@H]3CCc4cc(O)ccc4[C@H]3CC[C@]12C.Cl` [17-DMABE2HCl, 17-N,N dimethylamino butyl ester HCl], the “peak cerebrospinal fluid (CSF) concentration of estradiol” value in [2] is “about 30 ng/ml”. Moreover, in data set [5] (pH 4, 25° C.), the “shelf life of nasal spray solution” value was “approximately 19 months”. For the same molecule, the “peak CSF concentration (molar)” value in data set [3] was “about 0.075 μM”.

Turning to `C[C@]12CC[C@@H]3c4ccc(O)cc4CC[C@H]3[C@@H]1CC[C@@H]2O` [17β-estradiol], the “CSF concentration of 17B-estradiol, intranasal versus comparable intravenous dose of the prodrug” value in [2] (dimethylglycine ester prodrug) was 5-8 fold. Further, in [6], the “octanol/water partition coefficient log P” value is 3.1-4.0.

Regarding `Nc1nc2c(ncn2COCCO)c(=O)[nH]1` [Acyclovir], in [1], the “solubility in water of the unmodified compound” value is 1400 µg/mL.

In the case of `CC(C)NCC(O)COc1ccc(CC(N)=O)cc1` (stereo not shown) [Atenolol], in data set [4], the Flux is 400 μg/(cm^2 · h).

Take `NC(=O)N1c2ccccc2C=Cc2ccccc21` [Carbamazepine]: the “Peak Brain Tissue, ~uM” value in [7] (Intranasal, 0.2 mg/kg) was roughly 48 µM; in data set [7] (Intravenous, 8.0 mg/kg), roughly 16 µM; in data set [7] (Oral, 16 mg/kg), roughly 12 µM. In data set [7] (in vivo, po), the “peak brain tissue concentration, intranasal versus oral dosing” value was “about four times higher”. The “Peak Brain Tissue” value in [8] (Intranasal, 0.2 mg/kg) is 12 µg/g; in [8] (Intravenous, 8.0 mg/kg) it was 4 µg/g; in data set [8] (Oral, 16 mg/kg) it was 3 µg/g.

For `C[C@]12CC[C@H](O)CC1=CC[C@@H]1[C@@H]2CC[C@]2(C)C(=O)CC[C@@H]12` [DHEA], the “octanol/water partition coefficient log P” value in [6] is 1.54.

Consider `CCCCOC(=O)[C@@H](N)Cc1ccc(O)c(O)c1` [L-dopa butyl ester], for which the “estimated time for 10% decomposition” value in [5] (pH 4.4, 0.05M phosphate buffer, 10° C.) is reported as 2.7 years.

Regarding `CC(C)c1cccc(C(C)C)c1OC(=O)[C@@H]1CCCN1` [L-proline ester of propofol], in [1], the “solubility of the prodrug” value is “about 1.1 mmol/ml”.

Turning to `[Mg+2]` [Mg^+2], in data set [9], the “inhibition of enzymatic glucuronidation activity” value is given as “about 85%”.

For `O=C(O)c1ccccc1O` [Salicylic Acid], the Flux in data set [4] is reported as 41.17 μg/(cm^2 · h).

For `CC(C)(C)NC[C@H](O)COc1nsnc1N1CCOCC1` [Timolol], the Flux in data set [4] (reservoir 10 mg/ml, 2 ml) is 200 μg/(cm^2 · h); in [4] (reservoir 20 mg/ml, 2 ml) it was 250 μg/(cm^2 · h).

As for `COc1cc(/C=C/C(=O)COC(=O)/C=C/c2ccc(O)c(OC)c2)ccc1O` [compound 31, 4″-(3′″-methoxy-4′″-hydroxyphenyl)-2″-oxo-3″-enebutanyl3-(3′-methoxy-4′hydroxyphenyl)propenoate], the “anti-βA (25-35) ED50” value in the data set with PC12 cells, βA (25-35) was 1.0 ± 0.3 µg/mL. Besides, the “anti-βA (1-42) ED50” value in the data set on PC12 cells, βA (1-42) is 2.0 ± 0.4 µg/mL. Besides, the “fold more potent than curcumin as neuroprotectant against beta amyloid” value (from here on “fold more potent than curcumin”) with PC12 cells (analysis of the Park data) is roughly 5 fold.

With `COc1cc(C=CC(=O)CC(=O)C=Cc2ccc(O)cc2)ccc1O` [compound 32, 1-(4-hydroxy-3-methoxyphenyl)-7-(4-hydroxyphenyl)-1,6-heptadiene-3,5-dione], the “anti-BA (25-35) ED50” value in the data set with PC12 cells, βA (25-35) (Kim) is 4.7 ± 0.1 µg/mL. Moreover, the “anti-βA (25-35) ED50” value in the data set on PC12 cells, βA (25-35) is 4.0 ± 0.5 µg/mL. Further, the “anti-BA (1-42) ED50” value with PC12 cells, βA (1-42) (Kim) is 4.2 ± 0.3 µg/mL. Moreover, the “anti-βA (1-42) ED50” value in the data set with PC12 cells, βA (1-42) is 5.0 ± 0.5 µg/mL. For the same molecule, the “fold more potent than curcumin” value in the data set on PC12 cells (analysis of the Kim data) is listed as roughly 1.5 fold.

Take `O=C(C=Cc1ccc(O)cc1)CC(=O)CCc1ccc(O)cc1` [compound 34, 1,7-bis(4-hydroxyphenyl)-1-heptene-3,5-dione]: the “anti-βA (25-35) ED50” value with PC12 cells, βA (25-35) was 0.5 ± 0.2 µg/mL. Moreover, the “anti-βA (1-42) ED50” value with PC12 cells, βA (1-42) is 1.0 ± 0.3 µg/mL. In addition, the “fold more potent than curcumin” value with PC12 cells (analysis of the Park data) is given as roughly 10 fold.

On to `COc1cc(/C=C/C(=O)CC(=O)/C=C/c2ccc(O)c(OC)c2)ccc1O` [curcumin, (E,E)-1,7-bis(4-hydroxy-3-methoxyphenyl)-1,6-heptadiene-3,5,-dione], for which the AUC in data set [10] (Shoba, Oral + piperine) is 80 ng·h/mL; in data set [10] (Shoba, Oral Dosing) it was 4 ng·h/mL; in data set [10] (Vareed, Oral Dosing), roughly 30 ng·h/mL. The “serum Cmax” value is 180 ng/mL in [10] (Shoba, 2 g/day oral curcumin supplemented with piperine, second of two values) and 6 ng/mL in data set [10] (Shoba, 2 g/day oral curcumin, first of two values). The “area-under-the-curve (AUC)” value in [10] (dose of about 11 g, healthy volunteers, conjugated curcumin (Vareed)) is given as “about 30 μg/ml·hr”. Also, the clearance is 7.33 L/h in data set [10] (oral dosing of curcumin plus piperine (Shoba)), 495 L/h in data set [12] (curcumin alone (Shoba)) and 713 L/h in [12] (curcumin with piperine (Shoba)). Further, the predicted flux entry is “about 800 μg/(cm^2·h)” in data set [11] (divalent curcumin salt), “about 400 μg/(cm^2·h)” in data set [11] (setting [14]) and “about 35 μg/(cm^2·h)” in [11] (worst case). The predicted plasma concentration entry in [11] (divalent curcumin salt) is “about 0.3 μM”; in [11] (setting [14]), “about 60 ng/ml; also recorded: about 0.14 μM”; in data set [11] (worst case) it was “about 5 ng/ml”; in data set [11] (worst case, flux 35, 50 cm^2, clearance 350 L/hr), 0.012 µM. The “octanol/water partition coefficient log P” value in [6] is on record as roughly 3. In addition, in data set [13], the “peak curcumin concentration in brain tissue (molar)” value is listed as “about 0.40 uM”. For the same molecule, at MRP2, the 50% inhibitory concentration (IC50) is 5 µM. In addition, the “solubility in water of the unmodified compound” value in data set [1] is recorded as “about 0.004 mg/ml”. In the data set with amyloid plaques, the “blood brain barrier crossing and plaque binding” value is “crossed the blood brain barrier and bound amyloid plaques”. Also, at UGT1A1, the “inhibition of UGT1A1” value was “about 95%”.

As to `CCCCCCC(C)(C)c1cc(O)c2c(c1)OC(C)(C)[C@H]1CC=C(CO)C[C@H]21` [dexanabinol], the “Parent Solubility” value in data set [1] is 2000 to 7000 µg/mL.

Turning to `OCCOCCN1CCN(C(c2ccccc2)c2ccc(Cl)cc2)CC1` (stereo not shown) [hydroxyzine.HCl], in data set [6] (pH 7.4), the “octanol:water partition coefficient log Doct/pH 7.4” value is listed as 2.37-2.87.

Take `C[C@]12CC[C@H]3[C@@H](CCC4=CC(=O)CC[C@@]43C)[C@@H]1CC[C@@H]2OC(=O)[C@@H]1CCC[N+]1(C)C` [testosterone-17β-stachydrine ester, chloride salt]: the iontophoretic flux result in data set [4] is listed as “about 40 μg/(cm^2·h)”.

As for `C[C@]12CC[C@H]3[C@@H](CCC4=CC(=O)CC[C@@]43C)[C@@H]1CC[C@@H]2O` [testosterone], in data set [4], the Flux is 40 μg/(cm^2 · h). Also, in data set [1], the “Parent Solubility” value is 10 µg/mL.

For Triton X-100, the “inhibition of several UGT enzymes” value in the data set on UGT enzymes is on record as “nearly fully inhibited”.
